Laboratory results reported in the NIST ThermoML archive (doi:10.1021/je900113f).

Conditions: 101.33 kPa, Liquid, Vibrating wire viscometry

CC(C)CCCCCCCOC(=O)c1ccccc1C(=O)OCCCCCCCC(C)C
Conditions | viscosity [mPa·s]
283.03 K | 264.88
288.23 K | 176.35
288.36 K | 173.92
293.23 K | 122.34
293.93 K | 116.51
298.13 K | 87.76
298.58 K | 85.3
303.18 K | 64.51
303.5 K | 63.25
